Assay results: PubChem BioAssay AID330 (DTP/NCI, 2004)
Inconclusive results and toxic doses are left out. How the source made its calls: active means survival T/C of 150% or more; inactive means T/C below 125% in these data.

System: P388 leukemia ip, CD2F1 mice, survival T/C
Experiment: NCI In Vivo Anticancer Drug Screen. Data for tumor model P388 Leukemia (intraperitoneal) in CD2F1 (CDF1) mice
Details: endpoint: median survival time, higher = longer survival
In short: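 Mice carrying the transplanted tumor received test compound or vehicle. Survival was recorded in each group, and the value is the treated-group measurement divided by that of the vehicle-treated control group.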

[1] = dose: 50.0 mg/kg/injection, schedule: Q01DX009 (ip), vehicle: saline with Tween-80
[2] = dose: 100.0 mg/kg/injection, schedule: Q01DX009 (ip), vehicle: saline with Tween-80
[3] = dose: 50.0 mg/kg/injection, schedule: Q01DX009 (ip), vehicle: Klucel (hydroxypropylcellulose) (HPC)
[4] = dose: 100.0 mg/kg/injection, schedule: Q01DX009 (ip), vehicle: Klucel (hydroxypropylcellulose) (HPC)
[5] = dose: 200.0 mg/kg/injection, schedule: Q01DX009 (ip), vehicle: Klucel (hydroxypropylcellulose) (HPC)

Measured: T/C

COC12C(COC(N)=O)C3=C(C(=O)C(C)=C(N4CC4)C3=O)N1CC1NC12 (stereo not drawn)
inactive: dose: 0.33 mg/kg/injection, schedule: Q04DX003 (ip), vehicle: saline with Tween-80 91 % of control | dose: 0.75 mg/kg/injection, schedule: Q04DX003 (ip), vehicle: saline with Tween-80 87 % of control
active: dose: 0.13 mg/kg/injection, schedule: Q04DX003 (ip), vehicle: saline sonified 154 % of control | dose: 0.25 mg/kg/injection, schedule: Q04DX003 (ip), vehicle: saline sonified 163 % of control | dose: 0.5 mg/kg/injection, schedule: Q04DX003 (ip), vehicle: saline sonified 181 % of control

N#Cc1c(N)nc2c(c1N)CC(CO)O2 (stereo not drawn)
inactive: [1] 96 % of control | [2] 93 % of control

OCC1(C(O)(C2CC2)C2(CO)CC2)CC1
inactive: dose: 50.0 mg/kg/injection, schedule: Q01DX005 (ip), vehicle: saline with Tween-80 105 % of control | dose: 100.0 mg/kg/injection, schedule: Q01DX005 (ip), vehicle: saline with Tween-80 105 % of control | dose: 200.0 mg/kg/injection, schedule: Q01DX005 (ip), vehicle: saline with Tween-80 100 % of control

COc1ccc2c(-c3ccc(O)cc3)c(-c3ccccc3)c(=O)oc2c1
inactive: dose: 60.0 mg/kg/injection, schedule: Q01DX005 (ip), vehicle: saline with Tween-80 86 % of control | dose: 120.0 mg/kg/injection, schedule: Q01DX005 (ip), vehicle: saline with Tween-80 97 % of control | dose: 240.0 mg/kg/injection, schedule: Q01DX005 (ip), vehicle: saline with Tween-80 89 % of control

CC(C)OC(=O)C1(N)CCCC1
inactive: dose: 50.0 mg/kg/injection, schedule: Q01DX009 (ip), vehicle: saline 97 % of control | dose: 100.0 mg/kg/injection, schedule: Q01DX009 (ip), vehicle: saline 87 % of control | dose: 100.0 mg/kg/injection, schedule: Q04DX003 (ip), vehicle: saline 95 % of control | dose: 200.0 mg/kg/injection, schedule: Q04DX003 (ip), vehicle: saline 104 % of control

O=C(N/N=C\c1ccc(O)cc1O)C(=O)N/N=C\c1ccc(O)cc1O
inactive: [3] 98 % of control | [4] 105 % of control | [5] 100 % of control

COc1cc(Cc2nnc(N)nc2N)cc(OC)c1OC
inactive: dose: 100.0 mg/kg/injection, schedule: Q01DX001 (ip), vehicle: Klucel (hydroxypropylcellulose) (HPC) 100 % of control | dose: 200.0 mg/kg/injection, schedule: Q01DX001 (ip), vehicle: Klucel (hydroxypropylcellulose) (HPC) 114 % of control | dose: 400.0 mg/kg/injection, schedule: Q01DX001 (ip), vehicle: Klucel (hydroxypropylcellulose) (HPC) 96 % of control

C/C(CC(O)(c1ccccc1)c1ccccc1)=N\SC(c1ccccc1)(c1ccccc1)c1ccccc1
inactive: dose: 100.0 mg/kg/injection, schedule: Q01DX001 (ip), vehicle: saline with Tween-80 106 % of control | dose: 200.0 mg/kg/injection, schedule: Q01DX001 (ip), vehicle: saline with Tween-80 100 % of control | dose: 400.0 mg/kg/injection, schedule: Q01DX001 (ip), vehicle: saline with Tween-80 98 % of control

C/C=C/C[P+](c1ccccc1)(c1ccccc1)c1cccc2ccccc12
inactive: dose: 6.25 mg/kg/injection, schedule: Q04DX002 (ip), vehicle: saline with Tween-80 121 % of control | dose: 12.5 mg/kg/injection, schedule: Q04DX002 (ip), vehicle: saline with Tween-80 99 % of control | dose: 25.0 mg/kg/injection, schedule: Q04DX002 (ip), vehicle: saline with Tween-80 108 % of control

COc1cc(-c2oc3ccccc3c(=O)c2O)cc(OC)c1OC
inactive: [1] 93 % of control | [2] 91 % of control | dose: 200.0 mg/kg/injection, schedule: Q01DX009 (ip), vehicle: saline with Tween-80 93 % of control

CC1C(c2ccccc2)NC(c2ccccc2)C(C)C1O (stereo not drawn)
inactive: dose: 50.0 mg/kg/injection, schedule: Q01DX005 (ip), vehicle: Klucel (hydroxypropylcellulose) (HPC) 101 % of control | dose: 100.0 mg/kg/injection, schedule: Q01DX005 (ip), vehicle: Klucel (hydroxypropylcellulose) (HPC) 98 % of control | dose: 200.0 mg/kg/injection, schedule: Q01DX005 (ip), vehicle: Klucel (hydroxypropylcellulose) (HPC) 105 % of control

O=C(CO)c1ccc([N+](=O)[O-])cc1
inactive: dose: 1.56 mg/kg/injection, schedule: Q01DX009 (ip), vehicle: saline with Tween-80 99 % of control | dose: 3.13 mg/kg/injection, schedule: Q01DX009 (ip), vehicle: saline with Tween-80 101 % of control | dose: 6.25 mg/kg/injection, schedule: Q01DX009 (ip), vehicle: saline with Tween-80 106 % of control | dose: 12.5 mg/kg/injection, schedule: Q01DX009 (ip), vehicle: saline with Tween-80 116 % of control

CCCC(NC(=O)C(C)N)C(=O)O (stereo not drawn)
inactive: [3] 107 % of control | [4] 95 % of control | [5] 102 % of control | dose: 400.0 mg/kg/injection, schedule: Q01DX009 (ip), vehicle: Klucel (hydroxypropylcellulose) (HPC) 102 % of control
